{"source": "patent US5334582A", "about": "“Pharmaceutical bacteriocin compositions and methods for using the same” (Applied Microbiology, Inc., priority 1993, dated 1994)", "key": {"E. coli strain ATCC8739": {"system": "E. coli strain ATCC8739", "assay": "nisin-citrate agar growth inhibition assay", "type": "cell-based", "conditions": "Trypticase Soy Agar", "description": "However, nisin in the presence of citrate is active against gram negative bacteria. […] This nisin-citrate agar assay has much more general applicability. The assay provides a method for screening potential agents other than citrate in combination with nisin for their potential properties as enhancers of nisin's inherent bactericidal activity.\nE. coli is resuspended to an optical density of 1.0 at A600. A 100 μl sample of the bacterial suspension is spread uniformly on Trypticase Soy nutrient agar (TSA) supplemented with various concentrations of citrate (eg. 0.1%, 0.3%, 1.0%, 3.0%) and incubated for 1 hour at 37° C. A nisin stock solution and serial dilutions thereof in 0.1% bovine serum albumin (BSA), are prepared and 5 μl are taken from each and deposited onto the growing bacterial lawn. The TSA plates are then incubated for 24 hours at 37° C. After 24 hours at 37° C., E. coli grown on TSA supplemented with citrate form a confluent lawn. […] The effectiveness of nisin against the gram negative bacteria can be assessed from determining the minimum amount of nisin required to produce a clear zone of growth inhibition. As the concentration of citrate in the nutrient agar is increased, less nisin is required to inhibit the growth of E. coli, as is illustrated by the data shown in Table 6."}, "Escherichia coli": {"system": "Escherichia coli", "conditions": "for % survival at 1 min: nisin 100 μg/ml and/or EDTA 1.0 mM"}, "[1]": {"conditions": "0.1% w/v acetate pH 3.5, 37° C."}, "[2]": {"conditions": "0.1% w/v citrate pH 3.5, 37° C."}, "[3]": {"conditions": "0.1% w/v lactate pH 3.5, 37° C."}, "[4]": {"conditions": "0.3% w/v acetate pH 3.5, 37° C."}, "[5]": {"conditions": "0.3% w/v citrate pH 3.5, 37° C."}, "[6]": {"conditions": "0.3% w/v lactate pH 3.5, 37° C."}, "[7]": {"conditions": "1.0% w/v acetate pH 3.5, 37° C."}, "[8]": {"conditions": "1.0% w/v citrate pH 3.5, 37° C."}, "[9]": {"conditions": "3.0% w/v citrate pH 3.5, 37° C."}, "[10]": {"conditions": "pH 2.0, 20 mM Na acetate buffer, 37° C., initial count 4 × 10^7 cfu/ml"}}, "note": "Read-outs that look alike come from different tables or passages of the source.", "data": [{"compound": "nisin", "values": [{"measurement": "Nisin NIC (nominal inhibitory concentration minimally required to prevent growth)", "setting": "E. coli strain ATCC8739; 0% citrate", "value": "3,333 μg/ml"}, {"measurement": "Nisin NIC (nominal inhibitory concentration minimally required to prevent growth)", "setting": "E. coli strain ATCC8739; 0.1% citrate", "value": 370, "unit": "µg/mL"}, {"measurement": "Nisin NIC (nominal inhibitory concentration minimally required to prevent growth)", "setting": "E. coli strain ATCC8739; 0.3% citrate", "value": 123, "unit": "µg/mL"}, {"measurement": "Nisin NIC (nominal inhibitory concentration minimally required to prevent growth)", "setting": "E. coli strain ATCC8739; 1.0% citrate", "value": 13.7, "unit": "µg/mL"}, {"measurement": "Nisin NIC (nominal inhibitory concentration minimally required to prevent growth)", "setting": "E. coli strain ATCC8739; 3.0% citrate", "value": 0.06, "unit": "µg/mL"}, {"measurement": "% survival at 1 min", "setting": "Escherichia coli; [1]", "value": 9.6, "unit": "%"}, {"measurement": "% survival at 1 min", "setting": "Escherichia coli; [2]", "value": 0.003, "unit": "%"}, {"measurement": "% survival at 1 min", "setting": "Escherichia coli; [3]", "value": 4.4, "unit": "%"}, {"measurement": "% survival at 1 min", "setting": "Escherichia coli; [4]", "value": 70, "unit": "%"}, {"measurement": "% survival at 1 min", "setting": "Escherichia coli; [5]", "value": 0.0007, "unit": "%"}, {"measurement": "% survival at 1 min", "setting": "Escherichia coli; [6]", "value": 0.24, "unit": "%"}, {"measurement": "% survival at 1 min", "setting": "Escherichia coli; [7]", "value": 100, "unit": "%"}, {"measurement": "% survival at 1 min", "setting": "Escherichia coli; [8]", "value": 0.56, "unit": "%"}, {"measurement": "% survival at 1 min", "setting": "Escherichia coli; 3.0% w/v acetate pH 3.5, 37° C.", "value": 100, "unit": "%"}, {"measurement": "% survival at 1 min", "setting": "Escherichia coli; [9]", "value": 14.6, "unit": "%"}, {"measurement": "activity towards gram negative bacteria", "setting": "Escherichia coli; nisin by itself or in the presence of citrate", "value": "ineffective"}, {"measurement": "% survival at 1 min", "setting": "Escherichia coli; [10]", "value": 0.28, "unit": "%"}, {"measurement": "% survival at 1 min", "setting": "Escherichia coli; pH 3.5, 20 mM Na acetate buffer, 37° C.", "value": 100, "unit": "%"}, {"measurement": "% survival at 1 min", "setting": "Escherichia coli; pH 4.0, 20 mM Na acetate buffer, 37° C.", "value": 100, "unit": "%"}]}, {"compound": "O=C(O)CN(CCN(CC(=O)O)CC(=O)O)CC(=O)O", "note": "[EDTA]", "values": [{"measurement": "% survival at 1 min", "setting": "Escherichia coli; [1]", "value": 40, "unit": "%"}, {"measurement": "% survival at 1 min", "setting": "Escherichia coli; [2]", "value": 100, "unit": "%"}, {"measurement": "% survival at 1 min", "setting": "Escherichia coli; [3]", "value": 5.1, "unit": "%"}, {"measurement": "% survival at 1 min", "setting": "Escherichia coli; [4]", "value": 25, "unit": "%"}, {"measurement": "% survival at 1 min", "setting": "Escherichia coli; [5]", "value": 50.0, "unit": "%"}, {"measurement": "% survival at 1 min", "setting": "Escherichia coli; [6]", "value": 0.46, "unit": "%"}, {"measurement": "% survival at 1 min", "setting": "Escherichia coli; [7]", "value": 25, "unit": "%"}, {"measurement": "% survival at 1 min", "setting": "Escherichia coli; [8]", "value": 47.9, "unit": "%"}, {"measurement": "% survival at 1 min", "setting": "Escherichia coli; 1.0% w/v lactate pH 3.5, 37° C.", "value": 0.91, "unit": "%"}, {"measurement": "% survival at 1 min", "setting": "Escherichia coli; [9]", "value": 100, "unit": "%"}, {"measurement": "% survival at 1 min", "setting": "Escherichia coli; [10]", "value": 0.07, "unit": "%"}]}]}
